We go through five compounds from patent publication US5527900A, “N3-alkyl-2',5'-0-silylated-3'-spiro-thymidine derivatives” (Stitching Rega VZW, priority 1991, dated 1996).

Data set [1] has as its system HIV-1 (HTLV-IIIB). In words: Anti-retrovirus activity: inhibition of HIV-1-induced cytopathogenicity in MT-4 cells. It counts as cell-based. The note with it: for EC50: Human immunodeficiency virus 1, IIIB; for S.I. (Selectivity Index): Table 1, CC50/EC50, MT-4 cells. The source says:
The viruses used were moloney murine sarcoma virus (MSV), HIV-1 (strain HTLV-IIIB, kindly provided by R. C. Gallo and M. Popovic, National Cancer Institute, Bethesda, Md.), HIV-2 (strain LAV-2(ROD)), kindly provided by L. Montagnier (Pasteur Institute, Paris, France), simian immunodeficiency virus (SIV) (strain SIVMAC251, kindly provided by C. Bruck, RIT-Smith-Kline, Rixensart, Belgium).
(§1) In order to evaluate the inhibitory effects against retrovirus-induced cytopathogenicity in MT-4cells, said cells (5×10^5 cells/ml) were suspended in fresh culture medium and infected with HIV-1, HIV-2 or SIOV at 100 times the cell culture infective dose-50 (CCID50) per ml cell suspension (1 CCID50 being the dose infective for 50% of the cell cultures). Then, 100 μl of the infected cell suspension were transferred to microplate wells, mixed with 100 μl of the appropriate dilutions of the test compounds, and further incubated at 37° C. After 5 days, the number of viable cells was determined in a blood cell-counting chamber by trypan blue staining for both virus-infected and mock-infected cell cultures.
(Protection from cytopathic effect is a common read-out in antiviral testing.)

A short description of data set [2]: Cytotoxicity for mock-infected MT-4 cells. The note with it: human, mt-4 cells. As for the experimental part: as §1
Data set [3] has as its system MT-4 cells. In words: Cytotoxicity for mock-infected MT-4 cells. The note with it: for cytotoxicity to MT-4 cells (in words): at 100 μg/ml. As for the experimental part: as §1
Data set [4] deals with HIV-1. In words: Antiviral activity upon delayed addition to HIV-1-infected MT-4 cells. It counts as cell-based. As to the method: as §1
Mt-4 cells were suspended in culture medium, infected with HIV-1 and brought into microplate wells as described above. […] After 5 days, the number of viable cells was determined and the EC50 and CC50 values for the test compounds were defined as described in example 1.

The test system of data set [5] is MT-4 cell DNA synthesis. In words: Incorporation of radiolabeled precursors into MT-4 cell DNA. The note with it: Homo sapiens, MT4, MT-4 cells, 20 to 24 hr. It counts as cell-based. From the text:
(§2) The radiolabeled nucleosides [methyl-^3 H]dThd (specific radioactivity: 40 Ci/mmol), [5-^3 H]dUrd (specific radioactivity: 27 Ci/mmol), [5-^3 H]dCyc (specific radioactivity: 18.2 Ci/mmol) and the radiolabeled amino acid L-[4,5-^3 H]leucine (specific radioactivity: 52 Ci/mmol were derived from the Radiochemcial Centre (Amersham, England); [5-^3 H]Urd (specific radioactivity: 21 Ci/mmol) and [5-^3 H]Cyd (specific radioactivity: 21 Ci/mmol) and were obtained from Moravek Biochemicals Inc. (Brea, Calif.)
(§3) The incorporation of [methyl-^3 H]dThd, [5-^3 H]dUrd, [5-^3 H]dCyd, [5-^3 H]Urd, [5-^3 H]Cyd and L-[4,5-^3 H]1eu into TCA-insoluble MT-4 cell material was measured in wells of a 96-well microtiter plate (Falcon-3072, Becton-Dickinson, New Jersey). To each well were added 10^5 MT-4 cells, 0.25 μCi of the radiolabeled precursor and a given amount of test compound. The cells were allowed to proliferate for 20 to 24 hr at 37° C. in a humidified, CO2 -controlled atmosphere. At the end of this incubation period, the contents of the wells (200 μl) were brought onto 25-mm glass fiber filters (type A/E, Gelman Instrument Company, Ann Arbor, Mich.), and mounted on a Millipore 3025 sampling manifold apparatus. The filters were washed twice with 2 ml and 5 ml cold NaCl/Pi (phosphte-buffered saline), twice with 2 and 5 ml cold 10% trichloroacetic acid (TCA), twice with 5 and 7.5 ml cold 5% TCA, and twice with 1 ml cold ethanol.

Data set [6] has as its system MT-4 cell RNA synthesis. In words: Incorporation of radiolabeled precursors into MT-4 cell RNA. Type of data set: cell-based. The note with it: Homo sapiens, MT4, MT-4 cells, 20 to 24 hr.
Description: as §2, §3

Data set [7] deals with MT-4 cell protein synthesis. In words: Incorporation of radiolabeled leucine into MT-4 cell protein. Type of data set: cell-based. The note with it: Homo sapiens, MT4; MT-4 cells, 20 to 24 hr; read-out: IC50, L-[4,5-3H]leucine incorporation.
Description: as §2, §3

In data set [8] the test system is MT-4 cell DNA, RNA or protein synthesis. In words: Incorporation of radiolabeled DNA, RNA or protein precursors into TCA-insoluble MT-4 cell material (summary in words). Type of data set: cell-based. The note with it: for inhibition of incorporation of dThd, dUrd, dCyd, Urd, Cyd or leucine: at 100 μg/ml.
Description: as §2, §3

Data set [9] in a line: Partition coefficient (Pa) between 1-octanol and 10 mM potassium phosphate buffer. To be noted: 1-octanol / 10 mM potassium phosphate buffer, pH 7.5, 50 μM; for logD at 50 µM: room temperature. Type of data set: physicochemical. As for the experimental part:
Partition of the test compounds between 1-octanol (Merck, Darmstadt, Germany) and 10 mM potassium phosphate buffer, pH, 7.5 (Merck), was measured as described in Balzarini et al., Biochem, Biophys. Res. Commun. 158: 413-422 (1989). Briefly, a 50 μM concentration of the test compound in potassium phosphate buffer was thoroughly mixed with an equal volume of 1-octanol for 30 min at room temperature. Then, the mixture was further equilibrated at room temperature and UV absorption was measured for the aqueous and alcoholic liquid phases. The partition coefficient (Pa) was calculated as the ratio of the compound concentration present in the 1-octanol phase to the compound concentration present in the aqueous phase.

For data set [10], the system named is HIV-1 mutant strains. In words: Resistance of HIV-1 strains selected against compounds 5, 6 and 7. Type of data set: cell-based.
Data set [11] deals with HIV-2 strain (EHO). In words: Activity against HIV-2 strain EHO. Type of data set: cell-based.
Setting [12] is: MT4, read-out: 50% effective concentration (EC50).
Where [13] appears, read: read-out: IC50, [5-3H]dCyd incorporation.
[14] abbreviates: read-out: IC50, [5-3H]dUrd incorporation.
[15] abbreviates: read-out: IC50, [methyl-3H]dThd incorporation.
Where [16] appears, read: read-out: IC50, [5-3H]Cyd incorporation.
Setting [17] is: read-out: IC50, [5-3H]Urd incorporation.

Each structure is given as a SMILES string. In brackets after ≈: the same amount, converted by molar mass. Like-named read-outs stand apart in the source and are kept apart here.

What is called CC50 is the concentration at which the toxic effect on the cells reaches its halfway point. Higher therefore signals better tolerance by the cells. As a reminder, the logD is lipophilicity at a set pH, counting ionised and neutral species. A lower logD goes with a more hydrophilic compound. With `Cc1cn([C@@H]2O[C@H](CO[Si](C)(C)C(C)(C)C)[C@@]3(OS(=O)(=O)C=C3N)[C@H]2O[Si](C)(C)C(C)(C)C)c(=O)n(C)c1=O` [Compound 6], the “Selectivity Index” value in [1] turned out to be 4088. For the same compound, the EC50 was determined as 0.034 µg/mL (≈ 0.0563 µM) in data set [1] (MT4, 120 h) and 0.034 µg/mL (≈ 0.0563 µM) in data set [1] (setting [12]). For the same compound, in data set [1], the “S.I. (Selectivity Index)” value was found to be 4088. The same compound came in with a half-maximal cytotoxic concentration (CC50) at 120 h in [2] of 139 µg/mL (≈ 230 µM). Besides, in [3], the “cytotoxicity to MT-4 cells (in words)” value was “not cytotoxic”. Also, the “decrease of antiviral activity on delayed addition” value in data set [4] (addition delayed by 17-24 hours, data not shown) amounted to 10 fold. Besides, the “antiviral activity on delayed addition” value in data set [4] (addition delayed by 41 to 48 hours) is recorded as “almost totally lost”. Also, the IC50 in data set [5] (setting [13]), in data set [5] (setting [14]), in data set [5] (setting [15]), in [6] (setting [16]), in data set [6] (setting [17]) and in data set [7] was more than 100 µg/mL throughout. The “inhibition of incorporation of dThd, dUrd, dCyd, Urd, Cyd or leucine” value (“inhibition of incorporation of dThd” below) in data set [8] is “did not markedly inhibit”. Moreover, the “presence in the n-octanol phase compared to the aqueous phase” value (shortened to “presence … compared to the aqueous phase”) in data set [9] is listed as “more than 95%”. In [9], this compound displayed a logD at 50 µM of more than 1.3. The “amino acid change in reverse transcriptase of HIV-1 strains selected for resistance” value in data set [10] is “glutamic acid change at position 138 to lysine”.
Consider `CCn1c(=O)c(C)cn([C@@H]2O[C@H](CO[Si](C)(C)C(C)(C)C)[C@@]3(OS(=O)(=O)C=C3N)[C@H]2O[Si](C)(C)C(C)(C)C)c1=O` [Compound 7, {1-[2', 5'-Bis-O-(tert-butyldimethylsily)-62 -D-ribofuranosyl]-3-N-ethyl-thymine}-3'-spiro-5"-{4"-amino-1", 2"-oxathiole-2",2"-dioxide}], for which, in data set [1], the “Selectivity Index” value came to 1000 and the “S.I. (Selectivity Index)” value was determined as 1000. Also, the EC50 in data set [1] (MT4, 120 h) came out at 0.073 µg/mL (≈ 0.118 µM). Also, the EC50 in data set [1] (setting [12]) was determined as 0.073 µg/mL (≈ 0.118 µM). Also, it took 73 µg/mL (≈ 118 µM) to reach half-maximal cytotoxicity in data set [2] (CC50 at 120 h). Also, in [9], the “presence … compared to the aqueous phase” value is recorded as “more than 95%” and the log distribution coefficient (logD) at 50 µM is more than 1.3. Further, the “amino acid change in reverse transcriptase of HIV-1 strains selected for resistance” value in [10] was “glutamic acid change at position 138 to lysine”.
Turning to `CC(C)=CCn1c(=O)c(C)cn([C@@H]2O[C@H](CO[Si](C)(C)C(C)(C)C)[C@@]3(OS(=O)(=O)C=C3N)[C@H]2O[Si](C)(C)C(C)(C)C)c1=O` [Compound 9, {1-[2', 5'-Bis-O-(tert-butyldimethylsilyl)-β-D-ribofuranosyl]-3-N-(3-methyl-2-butenyl)-thymine}-3'spiro-5"-{4"-amino-1", 2"-oxathiole-2", 2"-dioxide}], the EC50 in data set [1] (MT4, 120 h) is 0.239 µg/mL (≈ 0.363 µM). Moreover, the “S.I. (Selectivity Index)” value in data set [1] is given as 252. In [2], this compound displayed a CC50 at 120 h of 73 µg/mL (≈ 111 µM). In addition, in [3], the “cytotoxicity to MT-4 cells (in words)” value is “not cytotoxic”. Further, the “activity against HIV-2 strain (EHO)” value in data set [11] was “inactive”. In addition, the IC50 in data set [5] (setting [13]), in data set [5] (setting [14]), in data set [5] (setting [15]), in [6] (setting [16]), in data set [6] (setting [17]) and in [7] was more than 100 µg/mL each time. The “inhibition of incorporation of dThd” value in data set [8] was “did not markedly inhibit”.
For the compound `CC(C)(C)[Si](C)(C)OC[C@H]1O[C@@H](n2ccc(N)nc2=O)[C@H](O[Si](C)(C)C(C)(C)C)[C@]12OS(=O)(=O)C=C2N` [Compound 14, {1-[2', 5'-Bis-O-(tert-butyldimethylsilyl)-β-D-ribofuranosyl]-cytosine}-3'-spiro-5"-{4"-amino-1",2"-oxathiole-2",2"-dioxide}], the EC50 in data set [1] (MT4, 120 h) worked out at 0.439 µg/mL (≈ 0.764 µM). In addition, the “S.I. (Selectivity Index)” value in data set [1] is not below 456. Moreover, in data set [2], the CC50 at 120 h is not below 200 µg/mL. The “cytotoxicity to MT-4 cells (in words)” value in [3] was “not cytotoxic”. Also, the “activity against HIV-2 strain (EHO)” value in data set [11] was “inactive”. Also, the IC50 in data set [5] (setting [13]), in data set [5] (setting [14]), in [5] (setting [15]), in data set [6] (setting [16]), in data set [6] (setting [17]) and in data set [7] was more than 100 µg/mL each time. The “inhibition of incorporation of dThd” value in data set [8] was “did not markedly inhibit”. Besides, the “presence … compared to the aqueous phase” value in [9] is reported as “more than 95%”. The logD at 50 µM in data set [9] was more than 1.3.
For the compound `Cc1cn([C@@H]2O[C@H](CO[Si](C)(C)C(C)(C)C)[C@@]3(OS(=O)(=O)C=C3N)[C@H]2O[Si](C)(C)C(C)(C)C)c(=O)nc1N` [Compound 16, {1-[2', 5'-Bis-O-(tert-butyldimethylsilyl)-β-D-ribofuranosyl]-5-methyl-cytosine}-3'-spiro-5"-{4"-amino-1",2"-oxathiole-2",2"-dioxide}], the EC50 in data set [1] (MT4, 120 h) was determined as 0.072 µg/mL (≈ 0.122 µM). In addition, in data set [1], the “S.I. (Selectivity Index)” value amounted to 246. In data set [2], this compound came in with a cytotoxic concentration (CC50) at 120 h of 17.7 µg/mL (≈ 30.1 µM). For the same compound, in data set [3], the “inhibition of MT-4 cell proliferation (in words)” value was “inhibitory to MT-4 cell proliferation”. Besides, the “cytotoxicity to MT-4 cells (in words)” value in [3] was “not cytotoxic”. Moreover, in [11], the “activity against HIV-2 strain (EHO)” value was “inactive”. Further, the IC50 in data set [5] (setting [13]) came out at 14 µg/mL (≈ 23.8 µM); in data set [5] (setting [14]), 9.9 µg/mL (≈ 16.8 µM); in [5] (setting [15]) it was 14 µg/mL (≈ 23.8 µM); in data set [6] (setting [16]) it was 11 µg/mL (≈ 18.7 µM); in data set [6] (setting [17]), 8.9 µg/mL (≈ 15.1 µM); in [7] it was 13 µg/mL (≈ 22.1 µM). Also, in data set [8] (Table 2 discussion), the “inhibition of incorporation of precursors relative to inhibition of MT-4 cell proliferation” value is given as “equally inhibitory”. For the same compound, the “preferential inhibition of incorporation of one precursor over the others” value in data set [8] (Table 2 discussion) was “neither”. Also, the “inhibition of incorporation of dThd” value in data set [8] is “did not markedly inhibit”.
